Measured values as given in PMC11984905, “Chiral Switch of Gadopiclenol: New Standards in MRI Probes” (Advanced Science, 2025).

How the values were obtained:
[1] = Stability and protonation constants of Cu(II)-complexes (spectrophotometry, pH-potentiometry); assay type: physicochemical; settings: 0.15 M NaCl, 25 °C
Description: The stability constants of the Cu(II)‐complexes with rac‐L1, ent‐L1, rac‐L2 and ent‐L2 ligands were determined by spectrophotometry studying the Cu(II) – rac‐L1, Cu(II) – ent‐L1, Cu(II) – rac‐L2 and Cu(II) – ent‐L2 systems at the absorption band of Cu(II)‐complexes at [H^+] = 0.01–1.0 M in the wavelength range of 400–800 nm. The concentrations of CuCl2, rac‐L1, ent‐L1, rac‐L2 and ent‐L2 ligands were 0.002 M. The H^+ concentration in the samples was adjusted with the addition of calculated amounts of 3 M HCl. (I = [Na^+]+[H^+] = 0.15, [H^+]≤0.15 M). The samples were kept at 25 °C for a week. The absorbance values of the samples were determined at 11 wavelengths (575, 595, 615, 635, 655, 675, 695, 715, 735, 755, and 775 nm). For the calculations of the stability and protonation constants of the Cu(II)‐complexes, the molar absorptivities of CuCl2 and Cu(II)‐complexes were determined by recording the spectra of 1.0 × 10^−3, 1.5 × 10^−3, 2.0 × 10^−3, and 2.5 × 10^−3 M solutions of CuCl2 and Cu(II)‐complexes in the pH range of 1.7–7.5. The pH was adjusted by stepwise addition of concentrated NaOH or HCl solutions. The spectrophotometric measurements were made with a PerkinElmer Lambda 365 UV–vis spectrophotometer at 25 °C, using 1.0 cm cells.
The stability and protonation constants of Cu(II) complexes with rac-L1, ent-L1, rac-L2 and ent-L2 have been determined by spectrophotometry. The equilibrium reaction (Equation (S8)) has been studied in the [H^+] range of 0.01 – 1.0 M (the ionic strength was constant I=[Na^+]+[H^+]=0.15 in the samples [H^+]≤0.15 M), where the formation of Cu^2+, CuHx-yL and HxL species was assumed ([Cu(rac-L1)]^4- and [Cu(ent-L1)]^4-: x=6 and 7, y=4 and 5; [Cu(rac-L2)]^4- and [Cu(ent-L2)]^4-: x=3 and 4, y=1 and 2).
The protonation constants of Cu(II)-complexes with rac-L1, ent-L1, rac-L2 and ent-L2 have been determined by pH-potentiometric and spectrophotometric titrations of the complexes in the pH range 1.7 – 7.0. These studies reveal that [Cu(rac-L1)]^4- and [Cu(ent-L1)]^4- complexes can form mono-, di-, tri, tetra- and penta-protonated species via the protonation of all distant and two closer carboxylate groups of the pendant arms. Moreover, the pH potentiometric studies also indicate that the [Cu(rac-L2)]^- and [Cu(ent-L2)]^- complexes can form mono- and di-protonated species via the protonation of two carboxylate groups. […] Moreover, the maximum of the absorption band for the [Cu(H5L)]^+ species in Cu^2+ – ent-L1 system is also similar to that of [Cu(H2L)]^+ in Cu^2+ – ent-L2 system ([…], Figures S45 and S47). The maximum of the absorption band is shifted from 730 to 750 nm by the deprotonation of [Cu(H5L)]^+ and [Cu(H2L)]^+ via the formation of [Cu(H4L)] and [Cu(HL)] species in Cu^2+– rac-L1 and Cu^2+– rac-L2 systems (Figures S44 and S46).

[2] = Relaxivity at 21 / 400 MHz and 25 °C in 0.15 M NaCl; assay type: physicochemical; settings: 0.15 M NaCl
Description: The relaxivity values were calculated from the longitudinal relaxation time of H2O protons (T 1) measured at 21 MHz on a Stelar relaxometer connected to a Bruker WP80 NMR electromagnet adapted to variable‐field measurements (15−80 MHz proton Larmor frequency). The temperature of the sample holder was controlled with a thermostatted air stream. The longitudinal relaxation time was measured with the “inversion recovery” method (180° – τ – 90°) by using 12 different τ values with typical 90° pulse width of 6.4 µs, 4 scans. The measurements were performed with 1 mM solution of the Gd(III)‐complexes with rac‐L1, ent‐L1, rac‐L2, and ent‐L2 ligands, so the relaxivity values were given as r 1 = […] where T 1p and T 1w were the relaxation time of bulk water protons in the presence and absence of paramagnetic species, respectively. The variable pH relaxivity measurements of Gd(III)‐complexes with rac‐L1, ent‐L1, rac‐L2, and ent‐L2 ligands could be carried out by direct titration of the samples in the pH range 2.5–9.0 (21 MHz, 25 °C, 0.15 M NaCl). The pH was adjusted by stepwise addition of concentrated NaOH or HCl solution.
The stability constant of Gd(III)‐complexes with rac‐L2 and ent‐L2 ligands were determined by the measurement of the proton relaxation rates (r 1) studying the competition reaction of rac‐L2 and ent‐L2 ligands with AAZTA for Gd(III) ion at pH = 4.0 in 0.15 M NaCl solution. In these experiments, the concentration of Gd^3+, rac‐L2, and ent‐L2 ligands was 2.0 mM, while that of the AAZTA was varied between 1.0 and 6.0 mM (5 × 1.5 mL samples). The pH was adjusted to pH 4.0 by stepwise addition of concentrated NaOH or HCl solutions. The samples were kept at 70 °C for a month and then at 25°C for two months in order to attain the equilibrium (the time needed to reach the equilibria was determined by ^1H‐NMR relaxometry). ^1H‐NMR relaxometric measurement of Gd(III) – rac‐L2 – AAZTA and Gd(III) – ent‐L2 – AAZTA systems were performed with a Bruker Avance III 400 (9.4 T) equipped with BB inverse z gradient probe (5 mm). The longitudinal relaxation time (T 1) was measured with the “inversion recovery” method (180° – τ – 90°) by using 12 different τ values with typical 90° pulse width of 12.0 µs, 4 scans at 298 K. The stability constants of [Gd(rac‐L2)] and [Gd(ent‐L2)] complexes were calculated by considering the protonation constants of AAZTA ligand and the stability constant of [Gd(AAZTA)]^− complex (AAZTA: logK 1 ^H = 10.06, logK 2 ^H = 6.50, logK 3 ^H = 3.77, logK 4 ^H = 2.33, logK 5 ^H = 1.51; [Gd(AAZTA)]^−: logK GdL = 18.93, 0.15 M NaCl, 25 °C).^[ [47] ^] The equilibrium constants were calculated with the program PSEQUAD.^[ [48] ^]

Structure (SMILES)	logK CuL [1]	logKCuH2L [1]	logKCuH3L [1]	logKCuH4L [1]	logKCuH5L [1]	logKCuHL [1]	Relaxivity of GdH2L species ([2]; 21 MHz) [mM⁻¹ s⁻¹]	Relaxivity of GdH3L species ([2]; 21 MHz) [mM⁻¹ s⁻¹]	Relaxivity of GdH4L species ([2]; 21 MHz) [mM⁻¹ s⁻¹]	Relaxivity of GdHL species ([2]; 21 MHz) [mM⁻¹ s⁻¹]	Relaxivity of GdL species ([2]; 21 MHz) [mM⁻¹ s⁻¹]	Relaxivity of GdL species ([2]; 400 MHz) [mM⁻¹ s⁻¹]
O=C(O)CCC(C(=O)O)N1CCN(C(CCC(=O)O)C(=O)O)Cc2cccc(n2)CN(C(CCC(=O)O)C(=O)O)CC1 (racemic) [rac‐L1, 2,2’,2’’-[3,6,9,15-tetraazabicyclo[9.3.1]pentadeca-1(15),11,13-triene-3,6,9-triyl]tripentanedioic acid]	23.26(4)	4.80 (2)	4.28 (2)	3.69 (2)	2.33 (2)	5.38 (3)	9.61 ± 0.06	10.1 ± 0.1	11.7 ± 0.1	9.61 ± 0.06	9.61 ± 0.06	
O=C(CCC(C(=O)O)N1CCN(C(CCC(=O)NCC(O)CO)C(=O)O)Cc2cccc(n2)CN(C(CCC(=O)NCC(O)CO)C(=O)O)CC1)NCC(O)CO (racemic) [rac‐L2]	21.04 (5)	2.58 (5)				4.42 (4)					14.8 ± 0.1	10.8 ± 0.1
O=C(O)CCC(C(=O)O)N1CCN(C(CCC(=O)O)C(=O)O)Cc2cccc(n2)CN(C(CCC(=O)O)C(=O)O)CC1 (stereo not drawn) [ent‐L1]	23.22 (6)	4.72 (2)	4.11 (2)	3.36 (2)	1.31 (2)	5.25 (2)	12.2 ± 0.2	11.8 ± 0.1		12.1 ± 0.1	12.9 ± 0.1	
O=C(CCC(C(=O)O)N1CCN(C(CCC(=O)NCC(O)CO)C(=O)O)Cc2cccc(n2)CN(C(CCC(=O)NCC(O)CO)C(=O)O)CC1)NCC(O)CO (stereo not drawn) [ent‐L2]	21.52 (4)	1.44 (1)				3.27 (1)					16.2 ± 0.1	11.8 ± 0.1
